Test results: patent US20150005281A1, “PYRIMIDINE-2,4-DIAMINE DERIVATIVES AS KINASE INHIBITORS” (Cellzome Limited, priority 2011, published 2015)
pIC50: −log10 of the molar value.

Tests used:
Assay type in all cases: binding
JAK3 = target: T1, JAK3 (Homo sapiens, UniProt P52333); experiment: Kinobeads assay with immunodetection, JAK3; conditions: for pIC50: Kinobeads assay, mixed Molt4/Ramos lysate, read-out: Inhibition values (IC50) JAK3
T1 construct: endogenous in cells; host or cells: Molt4 (ATCC CRL-1582) and Ramos (ATCC CRL-1596) cells; mixed lysate 1:2
T1 sequence (P52333 1-1124): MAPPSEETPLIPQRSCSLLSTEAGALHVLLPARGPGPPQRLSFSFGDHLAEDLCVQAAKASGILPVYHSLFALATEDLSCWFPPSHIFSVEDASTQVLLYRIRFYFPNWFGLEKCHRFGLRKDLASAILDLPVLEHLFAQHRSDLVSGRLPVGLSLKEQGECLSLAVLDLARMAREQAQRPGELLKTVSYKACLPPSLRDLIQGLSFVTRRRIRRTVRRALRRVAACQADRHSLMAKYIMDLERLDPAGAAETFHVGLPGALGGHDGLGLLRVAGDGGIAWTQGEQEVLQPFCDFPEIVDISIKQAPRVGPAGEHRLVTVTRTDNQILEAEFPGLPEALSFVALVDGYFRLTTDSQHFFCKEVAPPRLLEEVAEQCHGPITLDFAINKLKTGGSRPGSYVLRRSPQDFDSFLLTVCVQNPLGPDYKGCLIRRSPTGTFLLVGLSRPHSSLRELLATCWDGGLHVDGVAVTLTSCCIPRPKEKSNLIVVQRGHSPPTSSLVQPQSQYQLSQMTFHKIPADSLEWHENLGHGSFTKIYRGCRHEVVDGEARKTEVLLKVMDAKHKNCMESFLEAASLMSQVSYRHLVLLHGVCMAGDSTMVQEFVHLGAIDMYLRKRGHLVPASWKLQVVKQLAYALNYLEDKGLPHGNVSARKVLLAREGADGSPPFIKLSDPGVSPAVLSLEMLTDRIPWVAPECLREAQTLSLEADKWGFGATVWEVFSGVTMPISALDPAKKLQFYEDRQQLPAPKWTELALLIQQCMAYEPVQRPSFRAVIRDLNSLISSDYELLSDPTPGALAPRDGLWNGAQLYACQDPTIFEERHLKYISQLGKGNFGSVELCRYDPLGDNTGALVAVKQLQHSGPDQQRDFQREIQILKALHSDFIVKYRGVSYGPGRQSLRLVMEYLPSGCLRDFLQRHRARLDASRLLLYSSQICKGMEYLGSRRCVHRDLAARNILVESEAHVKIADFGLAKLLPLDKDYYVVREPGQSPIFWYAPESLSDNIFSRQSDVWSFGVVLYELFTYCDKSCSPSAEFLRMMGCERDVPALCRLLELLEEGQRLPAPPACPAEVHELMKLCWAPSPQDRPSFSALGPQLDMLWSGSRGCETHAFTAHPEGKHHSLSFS
Protocol: (§1) Determination of the Effect of the Compounds According to the Invention on Janus Kinases (JAK Family) in Kinobeads™ Assays with Immunodetection of Kinases
(§2) The compounds of the present invention as described in the previous examples were tested in a Kinobeads™ assay as described for ZAP-70 (WO-A 2007/137867). Briefly, test compounds (at various concentrations) and the affinity matrix with the immobilized aminopyrido-pyrimidine ligand 24 were added to cell lysate aliquots and allowed to bind to the proteins in the lysate sample. After the incubation time the beads with captured proteins were separated from the lysate. Bound proteins were then eluted and the presence of JAK1, JAK2, JAK3 and TYK2 was detected and quantified using specific antibodies in a dot blot procedure and the Odyssey infrared detection system. Dose response curves for individual kinases were generated and IC50 values calculated. Kinobeads™ assays for ZAP-70 (WO-A 2007/137867) and for kinase selectivity profiling (WO-A 2006/134056) have been previously described.
(§3) The affinity matrix was washed two times with 15 mL of 1×DP buffer containing 0.2% NP40 (IGEPAL® CA-630, Sigma, #13021) and then resuspended in 1×DP buffer containing 0.2% NP40 (3% beads slurry).
(§4) 5×DP buffer: 250 mM Tris-HCl pH 7.4, 25% Glycerol, 7.5 mM MgCl2, 750 mM NaCl, 5 mM Na3VO4; filter the 5×DP buffer through a 0.22 μm filter and store in aliquots at −80° C. The 5×DP buffer is diluted with H2O to 1×DP buffer containing 1 mM DTT and 25 mM NaF.
(§5) Stock solutions of test compounds were prepared in DMSO. In a 96 well plate 30 μL solution of diluted test compounds at 5 mM in DMSO were prepared. Starting with this solution a 1:3 dilution series (9 steps) was prepared. For control experiments (no test compound) a buffer containing 2% DMSO was used.
(§6) Molt4 cells (ATCC catalogue number CRL-1582) and Ramos cells (ATCC catalogue number CRL-1596) were grown in 1 L Spinner flasks (Integra Biosciences, #182101) in suspension in RPMI 1640 medium (Invitrogen, #21875-034) supplemented with 10% Fetal Bovine Serum (Invitrogen) at a density between 0.15×10^6 and 1.2×10^6 cells/mL. Cells were harvested by centrifugation, washed once with 1×PBS buffer (Invitrogen, #14190-094) and cell pellets were frozen in liquid nitrogen and subsequently stored at −80° C. Cells were homogenized in a Potter S homogenizer in lysis buffer: 50 mM Tris-HCl, 0.8% NP40, 5% glycerol, 150 mM NaCl, 1.5 mM MgCl2, 25 mM NaF, 1 mM sodium vanadate, 1 mM DTT, pH 7.5. One complete EDTA-free tablet (protease inhibitor cocktail, Roche Diagnostics, 1873580) per 25 ml, buffer was added. The material was dounced 10 times using a mechanized POTTER S, transferred to 50 mL falcon tubes, incubated for 30 minutes on ice and spun down for 10 minutes at 20,000 g at 4° C. (10,000 rpm in Sorvall SLA600, precooled). The supernatant was transferred to an ultracentrifuge (UZ)-polycarbonate tube (Beckmann, 355654) and spun for 1 hour at 100.000 g at 4° C. (33.500 rpm in Ti50.2, precooled). The supernatant was transferred again to a fresh 50 mL falcon tube, the protein concentration was determined by a Bradford assay (BioRad) and samples containing 50 mg of protein per aliquot were prepared. The samples were immediately used for experiments or frozen in liquid nitrogen and stored frozen at −80° C.
(§7) Cell lysate (approximately 50 mg protein per plate) was thawed in a water bath at room temperature and then stored on ice. To the thawed cell lysate 1×DP 0.8% NP40 buffer containing protease inhibitors (1 tablet for 25 mL buffer; EDTA-free protease inhibitor cocktail; Roche Diagnostics 1873580) was added in order to reach a final protein concentration of 10 mg/mL total protein. The diluted cell lysate was stored on ice. Mixed Molt4/Ramos lysate was prepared by combining one volume of Molt4 lysate and two volumes of Ramos lysate (ratio 1:2). […]

JAK2 = target: T2, JAK2 (Homo sapiens, UniProt O60674); experiment: Kinobeads assay with immunodetection, JAK2; conditions: mixed Molt4/Ramos lysate, read-out: Inhibition values (IC50) JAK2
T2 construct: endogenous in cells; host or cells: Molt4 (ATCC CRL-1582) and Ramos (ATCC CRL-1596) cells; mixed lysate 1:2
Protocol: as §1, §2, §3, §4, §5, §6, §7

TYK2 = target: T3, TYK2 (Homo sapiens, UniProt P29597); experiment: Kinobeads assay with immunodetection, TYK2; conditions: for pIC50: Kinobeads assay, mixed Molt4/Ramos lysate, read-out: Inhibition values (IC50) Tyk2
T3 construct: endogenous in cells; host or cells: Molt4 (ATCC CRL-1582) and Ramos (ATCC CRL-1596) cells; mixed lysate 1:2
Protocol: as §1, §2, §3, §4, §5, §6, §7

JAK1 = target: T4, JAK1 (Homo sapiens, UniProt P23458); experiment: Kinobeads assay with immunodetection, JAK1; conditions: for pIC50: Kinobeads assay, mixed Molt4/Ramos lysate, read-out: Inhibition values (IC50) JAK1
T4 construct: endogenous in cells; host or cells: Molt4 (ATCC CRL-1582) and Ramos (ATCC CRL-1596) cells; mixed lysate 1:2
Protocol: as §1, §2, §3, §4, §5, §6, §7

T2 sequence (O60674 whole entry): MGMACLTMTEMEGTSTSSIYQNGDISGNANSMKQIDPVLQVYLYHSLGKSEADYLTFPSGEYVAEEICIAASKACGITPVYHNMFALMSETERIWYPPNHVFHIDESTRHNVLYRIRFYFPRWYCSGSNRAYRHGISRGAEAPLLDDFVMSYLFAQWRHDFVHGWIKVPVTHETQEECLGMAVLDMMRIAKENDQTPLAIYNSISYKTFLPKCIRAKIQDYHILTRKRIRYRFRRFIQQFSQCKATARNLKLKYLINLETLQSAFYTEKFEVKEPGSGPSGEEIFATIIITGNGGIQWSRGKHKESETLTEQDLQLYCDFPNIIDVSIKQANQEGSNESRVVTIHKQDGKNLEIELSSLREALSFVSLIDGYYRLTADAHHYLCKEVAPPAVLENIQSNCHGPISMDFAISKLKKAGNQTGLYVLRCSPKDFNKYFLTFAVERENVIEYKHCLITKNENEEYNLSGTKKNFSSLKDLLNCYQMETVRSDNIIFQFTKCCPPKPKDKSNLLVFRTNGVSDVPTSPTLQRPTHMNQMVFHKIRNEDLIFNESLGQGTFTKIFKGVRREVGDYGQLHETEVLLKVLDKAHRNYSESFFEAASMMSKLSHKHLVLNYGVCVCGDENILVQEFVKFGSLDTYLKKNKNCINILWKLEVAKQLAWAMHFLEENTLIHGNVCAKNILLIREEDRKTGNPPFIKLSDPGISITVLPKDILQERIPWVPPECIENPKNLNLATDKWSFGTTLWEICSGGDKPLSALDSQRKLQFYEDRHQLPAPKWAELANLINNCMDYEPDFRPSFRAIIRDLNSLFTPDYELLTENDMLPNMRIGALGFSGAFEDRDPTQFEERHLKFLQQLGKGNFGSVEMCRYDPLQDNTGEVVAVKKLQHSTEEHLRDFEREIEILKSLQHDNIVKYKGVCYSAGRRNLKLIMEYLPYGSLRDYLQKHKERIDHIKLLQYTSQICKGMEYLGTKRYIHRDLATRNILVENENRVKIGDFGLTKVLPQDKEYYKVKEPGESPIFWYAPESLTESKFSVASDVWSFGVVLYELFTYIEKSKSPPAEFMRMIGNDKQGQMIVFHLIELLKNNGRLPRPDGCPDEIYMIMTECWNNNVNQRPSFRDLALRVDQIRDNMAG
T3 sequence (P29597 whole entry): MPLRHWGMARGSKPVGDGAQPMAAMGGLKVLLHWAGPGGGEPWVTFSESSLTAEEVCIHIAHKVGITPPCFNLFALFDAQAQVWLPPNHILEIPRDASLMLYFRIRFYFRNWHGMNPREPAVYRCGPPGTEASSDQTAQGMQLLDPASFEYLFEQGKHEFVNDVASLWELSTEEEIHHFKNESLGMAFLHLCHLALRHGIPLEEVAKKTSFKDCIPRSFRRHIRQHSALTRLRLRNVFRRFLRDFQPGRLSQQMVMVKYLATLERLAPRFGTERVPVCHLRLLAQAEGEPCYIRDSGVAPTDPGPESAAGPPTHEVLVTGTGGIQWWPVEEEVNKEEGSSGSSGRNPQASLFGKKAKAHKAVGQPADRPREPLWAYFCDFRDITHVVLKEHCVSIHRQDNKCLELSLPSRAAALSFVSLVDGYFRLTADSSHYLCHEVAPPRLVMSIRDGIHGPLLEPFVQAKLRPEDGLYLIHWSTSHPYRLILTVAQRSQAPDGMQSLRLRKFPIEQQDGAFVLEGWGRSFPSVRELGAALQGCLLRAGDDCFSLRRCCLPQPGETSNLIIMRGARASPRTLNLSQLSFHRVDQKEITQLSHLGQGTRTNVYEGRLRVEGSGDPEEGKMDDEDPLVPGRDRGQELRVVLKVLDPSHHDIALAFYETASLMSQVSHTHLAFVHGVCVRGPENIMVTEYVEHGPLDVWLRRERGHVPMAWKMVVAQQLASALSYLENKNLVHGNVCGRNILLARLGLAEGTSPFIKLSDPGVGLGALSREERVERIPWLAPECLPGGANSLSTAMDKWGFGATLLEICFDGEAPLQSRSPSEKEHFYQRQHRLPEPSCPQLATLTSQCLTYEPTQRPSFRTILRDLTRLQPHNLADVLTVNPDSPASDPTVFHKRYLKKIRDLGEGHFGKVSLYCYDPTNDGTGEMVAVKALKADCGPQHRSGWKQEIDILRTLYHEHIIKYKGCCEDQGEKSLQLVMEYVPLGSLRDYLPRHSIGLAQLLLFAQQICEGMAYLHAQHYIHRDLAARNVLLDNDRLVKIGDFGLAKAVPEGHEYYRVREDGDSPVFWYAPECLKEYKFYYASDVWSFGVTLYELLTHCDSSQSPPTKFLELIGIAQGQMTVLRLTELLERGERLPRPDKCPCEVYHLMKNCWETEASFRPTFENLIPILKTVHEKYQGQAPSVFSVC
T4 sequence (P23458 whole entry): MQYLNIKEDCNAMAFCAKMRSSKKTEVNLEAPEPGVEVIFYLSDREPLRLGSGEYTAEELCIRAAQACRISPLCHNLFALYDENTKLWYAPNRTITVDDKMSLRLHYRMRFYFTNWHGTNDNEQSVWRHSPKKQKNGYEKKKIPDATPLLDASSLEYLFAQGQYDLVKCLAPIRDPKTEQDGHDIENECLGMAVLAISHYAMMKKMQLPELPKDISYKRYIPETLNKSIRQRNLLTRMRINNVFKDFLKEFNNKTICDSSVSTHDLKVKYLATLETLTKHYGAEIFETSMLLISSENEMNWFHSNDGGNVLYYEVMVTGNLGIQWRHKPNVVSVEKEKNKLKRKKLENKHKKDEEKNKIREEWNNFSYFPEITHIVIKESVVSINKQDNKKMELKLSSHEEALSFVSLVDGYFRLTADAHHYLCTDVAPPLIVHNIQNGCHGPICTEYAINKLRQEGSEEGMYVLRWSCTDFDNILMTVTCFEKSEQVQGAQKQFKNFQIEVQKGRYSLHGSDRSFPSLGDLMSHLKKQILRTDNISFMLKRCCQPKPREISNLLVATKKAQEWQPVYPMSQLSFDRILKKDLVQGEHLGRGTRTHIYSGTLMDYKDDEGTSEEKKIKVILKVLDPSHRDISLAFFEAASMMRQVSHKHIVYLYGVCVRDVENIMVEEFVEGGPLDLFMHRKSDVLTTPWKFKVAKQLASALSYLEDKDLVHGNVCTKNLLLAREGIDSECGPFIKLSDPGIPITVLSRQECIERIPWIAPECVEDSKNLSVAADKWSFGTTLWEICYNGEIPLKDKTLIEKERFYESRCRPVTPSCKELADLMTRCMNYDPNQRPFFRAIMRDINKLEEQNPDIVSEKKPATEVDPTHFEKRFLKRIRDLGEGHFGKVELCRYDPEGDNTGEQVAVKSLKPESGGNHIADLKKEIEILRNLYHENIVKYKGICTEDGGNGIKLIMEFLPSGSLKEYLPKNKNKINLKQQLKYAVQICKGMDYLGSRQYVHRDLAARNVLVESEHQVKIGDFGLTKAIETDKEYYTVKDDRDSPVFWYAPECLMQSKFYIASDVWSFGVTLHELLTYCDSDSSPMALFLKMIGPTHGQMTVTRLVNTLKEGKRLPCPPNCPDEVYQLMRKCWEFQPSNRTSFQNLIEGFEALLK

| Compound | pIC50 (JAK3) | pIC50 (JAK2) | pIC50 (TYK2) | Selectivity ratio over JAK2, JAK1 (JAK1) | pIC50 (JAK1) | Selectivity ratio over JAK2, Tyk2 (TYK2) | Selectivity ratio over JAK2, JAK3 (JAK3; JAK3 over JAK2) |
| --- | --- | --- | --- | --- | --- | --- | --- |
| OCCn1cc(Nc2ncc(Cl)c(NCC3CCNC3)n2)cn1 (stereo in doubt) [Example 79, (R)-2-(4-((5-chloro-4-((pyrrolidin-3-ylmethyl)amino)pyrimidin-2-yl)amino)-1H-pyrazol-1-yl)ethanol] | 5.00 to 6.00 | > 7.00 | 6.00 to 7.00 | JAK1 = 39 | 6.00 to 7.00 | – | – |
| CC(=O)N1CCC[C@@H]1CNc1nc(Nc2cnn(C)c2)ncc1Cl [Example 1, (R)-1-(2-(((5-chloro-2-((1-methyl-1H-pyrazol-4-yl)amino)pyrimidin-4-yl)amino)methyl)pyrrolidin-1-yl)ethanone] | > 7.00 | 5.00 to 6.00 | > 7.00 | JAK1 = 8 | 6.00 to 7.00 | – | – |
| CC(=O)N1CCC[C@@H]1CNc1nc(Nc2cnn(CCO)c2)ncc1Cl [Example 2, (R)-1-(2-(((5-chloro-2-((1-(2-hydroxyethyl)-1H-pyrazol-4-yl)amino)pyrimidin-4-yl)amino)methyl)pyrrolidin-1-yl)ethanone] | > 7.00 | 6.00 to 7.00 | > 7.00 | JAK1 = 6 | > 7.00 | – | – |
| C=CC(=O)N1CCC[C@@H]1CNc1nc(Nc2cnn(C)c2)ncc1Cl [Example 3, (R)-1-(2-(((5-chloro-2-((1-methyl-1H-pyrazol-4-yl)amino)pyrimidin-4-yl)amino)methyl)pyrrolidin-1-yl)prop-2-en-1-one] | 6.00 to 7.00 | 5.00 to 6.00 | 6.00 to 7.00 | – | 6.00 to 7.00 | Tyk2 = 10 | – |
| C=CC(=O)N1CCC[C@@H]1CNc1nc(Nc2cnn(CCO)c2)ncc1Cl [Example 4, (R)-1-(2-(((5-chloro-2-((1-(2-hydroxyethyl)-1H-pyrazol-4-yl)amino)pyrimidin-4-yl)amino)methyl)pyrrolidin-1-yl)prop-2-en-1-one] | 6.00 to 7.00 | 6.00 to 7.00 | > 7.00 | – | > 7.00 | Tyk2 = 8 | – |
| Cn1cc(Nc2ncc(Cl)c(NC[C@H]3CCCN3S(C)(=O)=O)n2)cn1 [Example 5, (R)-5-chloro-N^2-(1-methyl-1H-pyrazol-4-yl)-N^4-((1-(methylsulfonyl)pyrrolidin-2-yl)methyl)pyrimidine-2,4-diamine] | > 7.00 | 6.00 to 7.00 | > 7.00 | JAK1 = 13 | > 7.00 | – | – |
| CS(=O)(=O)N1CCC[C@@H]1CNc1nc(Nc2cnn(CCO)c2)ncc1Cl [Example 6, (R)-2-(4-((5-chloro-4-(((1-(methylsulfonyl)pyrrolidin-2-yl)methyl)amino)pyrimidin-2-yl)amino)-1H-pyrazol-1-yl)ethanol] | > 7.00 | 6.00 to 7.00 | > 7.00 | – | > 7.00 | Tyk2 = 11 | – |
| C=CS(=O)(=O)N1CCC[C@@H]1CNc1nc(Nc2cnn(C)c2)ncc1Cl [Example 7, (R)-5-chloro-N^2-(1-methyl-1H-pyrazol-4-yl)-N^4-((1-(vinylsulfonyl)pyrrolidin-2-yl)methyl)pyrimidine-2,4-diamine] | > 7.00 | 5.00 to 6.00 | 6.00 to 7.00 | – | 6.00 to 7.00 | – | JAK3 = 100 |
| CC(=O)N1CCC[C@H]1CNc1nc(Nc2cnn(C)c2)ncc1Cl [Example 8, (S)-1-(2-(((5-chloro-2-((1-methyl-1H-pyrazol-4-yl)amino)pyrimidin-4-yl)amino)methyl)pyrrolidin-1-yl)ethanone] | 6.00 to 7.00 | 5.00 to 6.00 | 6.00 to 7.00 | JAK1 = 17 | 6.00 to 7.00 | – | – |
| CC(=O)N1CCC[C@H]1CNc1nc(Nc2cnn(CCO)c2)ncc1Cl [Example 9, (S)-1-(2-(((5-chloro-2-((1-(2-hydroxyethyl)-1H-pyrazol-4-yl)amino)pyrimidin-4-yl)amino)methyl)pyrrolidin-1-yl)ethanone] | 6.00 to 7.00 | 5.00 to 6.00 | 6.00 to 7.00 | JAK1 = 25 | 6.00 to 7.00 | – | – |
| C=CC(=O)N1CCC[C@H]1CNc1nc(Nc2cnn(C)c2)ncc1Cl [Example 10, (S)-1-(2-(((5-chloro-2-((1-methyl-1H-pyrazol-4-yl)amino)pyrimidin-4-yl)amino)methyl)pyrrolidin-1-yl)prop-2-en-1-one] | 5.00 to 6.00 | < 5.00 | 5.00 to 6.00 | – | 5.00 to 6.00 | – | – |
| C=CC(=O)N1CCC[C@H]1CNc1nc(Nc2cnn(CCO)c2)ncc1Cl [Example 11, (S)-1-(2-(((5-chloro-2-((1-(2-hydroxyethyl)-1H-pyrazol-4-yl)amino)pyrimidin-4-yl)amino)methyl)pyrrolidin-1-yl)prop-2-en-1-one] | 5.00 to 6.00 | < 5.00 | 6.00 to 7.00 | – | 6.00 to 7.00 | – | – |
| Cn1cc(Nc2ncc(Cl)c(NC[C@@H]3CCCN3S(C)(=O)=O)n2)cn1 [Example 12, (S)-5-chloro-N^2-(1-methyl-1H-pyrazol-4-yl)-N^4-((1-(methylsulfonyl)pyrrolidin-2-yl)methyl)pyrimidine-2,4-diamine] | > 7.00 | 6.00 to 7.00 | > 7.00 | JAK1 = 12 | > 7.00 | – | – |
